Laboratory results as given in US20250282749A1 (Tango Therapeutics, Inc., priority 2022, published 2025).

How the values were obtained:
Type in all cases: cell-based
[1] = tested on: PRMT5 (SDMA) in HAP1 MTAP-deleted cell line; assay: SDMA in-cell western assay, HAP1 MTAP-deleted cell line; details: for IC50 / IC90: Homo sapiens, SDMA in-cell western, HAP1 MTAP-deleted (MTAP-null) cell line; for Hap1 MTAP intact/deleted ratio: ratio of SDMA in-cell western IC50 in HAP1 MTAP-intact to IC50 in HAP1 MTAP-deleted cell line
From the text: (§1) HAP1 MTAP-intact is a cell line in which endogenous levels of MTAP are expressed, and HAP1 MTAP-deleted is an MTAP-null cell line.

[2] = tested on: HAP1 MTAP-deleted cell line; assay: viability assay for the MTAP-deleted cell line; details: Homo sapiens
[3] = tested on: PRMT5 (SDMA) in HAP1 MTAP-intact cell line; assay: SDMA in-cell western assay, HAP1 MTAP-intact cell line; details: Homo sapiens, HAP1 MTAP-intact cell line (endogenous MTAP), read-out: Hap 1 MTAP intact IC50
From the text: as §1

IC50 [1] | IC90 [1] | IC50 [3] | Structure (SMILES) | Hap1 MTAP intact/deleted ratio [1] | IC50 [2]
5 to 50 nM | > 125 nM | > 50 nM | CCc1cc(NC(=O)C(=O)N2C[C@@H](C)N(C(=O)C3(C(F)(F)F)CC3)C[C@@H]2c2cccc(C(F)(F)F)c2)cnc1N [Compound 150, N-(6-amino-5-ethylpyridin-3-yl)-2-((2S,5R)-5-methyl-4-(1-(trifluoromethyl)cyclopropanecarbonyl)-2-(3-(trifluoromethyl)phenyl)piperazin-1-yl)-2-oxoacetamide] | A (an IC50 ratio greater than or equal to 30 fold) | < 100 nM
5 to 50 nM | > 125 nM | > 50 nM | Cc1cc(NC(=O)C(=O)N2C[C@@H](C)N(C(=O)C(C)C)C[C@@H]2c2ccc(F)c(F)c2)cnc1N [Compound 158, N-(6-amino-5-methylpyridin-3-yl)-2-((2S,5R)-2-(3,4-difluorophenyl)-4-isobutyryl-5-methylpiperazin-1-yl)-2-oxoacetamide] | A (an IC50 ratio greater than or equal to 30 fold) | 100 to 1000 nM
5 to 50 nM | 75 to 125 nM | > 50 nM | CCc1cc(NC(=O)C(=O)N2C[C@@H](C)N(C(=O)C(C)C)C[C@@H]2c2ccc(C)cc2)cnc1N [Compound 71, N-(6-amino-5-ethylpyridin-3-yl)-2-((2S,5R)-4-isobutyryl-5-methyl-2-(p-tolyl)piperazin-1-yl)-2-oxoacetamide] | B (an IC50 ratio greater than or equal to 15 fold but lower than 30 fold) | < 100 nM
< 5 nM | > 125 nM | > 50 nM | C[C@@H]1CN(C(=O)C(=O)Nc2cncc3[nH]ncc23)[C@@H](c2ccccc2)CN1C(=O)C1(C)CC1 [Compound 147, 2-((2S,5R)-5-methyl-4-(1-methylcyclopropanecarbonyl)-2-phenylpiperazin-1-yl)-2-oxo-N-(1H-pyrazolo[3,4-c]pyridin-4-yl)acetamide] | A (an IC50 ratio greater than or equal to 30 fold) | 100 to 1000 nM
5 to 50 nM | < 75 nM | > 50 nM | C[C@@H]1CN(C(=O)C(=O)Nc2cncc3cn[nH]c23)[C@@H](c2ccc(N3CCN(C)CC3)cc2)CN1C(=O)C(C)(C)C [Compound 142, 2-((2S,5R)-5-methyl-2-(4-(4-methylpiperazin-1-yl)phenyl)-4-pivaloylpiperazin-1-yl)-2-oxo-N-(1H-pyrazolo[4,3-c]pyridin-7-yl)acetamide] | C (an IC50 ratio of less than 15 fold) | < 100 nM

More lines, now with the values behind:

Structure (SMILES) | IC50 [1] | IC90 [1] | IC50 [3] | Hap1 MTAP intact/deleted ratio [1] | IC50 [2]
Cc1cc(NC(=O)C(=O)N2C[C@@H](C)N(C(=O)C3(C(F)(F)F)CC3)C[C@@H]2c2cc(Cl)cc(Cl)c2)cnc1N [Compound 62, N-(6-amino-5-methylpyridin-3-yl)-2-((2S,5R)-2-(3,5-dichlorophenyl)-5-methyl-4-(1-(trifluoromethyl)cyclopropanecarbonyl)piperazin-1-yl)-2-oxoacetamide] | 5 to 50 nM | 75 to 125 nM | > 50 nM | A (an IC50 ratio greater than or equal to 30 fold) | < 100 nM
C[C@@H]1CN(C(=O)C(=O)Nc2cncc3cn[nH]c23)[C@@H](c2ccccc2)CN1C(=O)C(C)(C)CN(C)C [Compound 68, 2-((2S,5R)-4-(3-(dimethylamino)-2,2-dimethylpropanoyl)-5-methyl-2-phenylpiperazin-1-yl)-2-oxo-N-(1H-pyrazolo[4,3-c]pyridin-7-yl)acetamide] | 5 to 50 nM | 75 to 125 nM | > 50 nM | A (an IC50 ratio greater than or equal to 30 fold) | 100 to 1000 nM
CC(C)C(=O)N1C[C@@H](c2ccc(F)c(F)c2)N(C(=O)C(=O)Nc2cnc(N)c(C3CC3)c2)C[C@H]1C [Compound 160, N-(6-amino-5-cyclopropylpyridin-3-yl)-2-((5R)-2-(3,4-difluorophenyl)-4-isobutyryl-5-methylpiperazin-1-yl)-2-oxoacetamide] | > 50 nM | > 125 nM | > 50 nM | C (an IC50 ratio of less than 15 fold) | > 1000 nM
C[C@@H]1CN(C(=O)C(=O)Nc2cncc3cn[nH]c23)[C@@H](c2ccc3scnc3c2)CN1C(=O)C1(C)CC1 (racemic) [Compound 61, 2-oxo-N-(1H-pyrazolo[4,3-c]pyridin-7-yl)-2-[rac-(2S,5R)-2-(1,3-benzothiazol-5-yl)-5-methyl-4-(1-methylcyclopropanecarbonyl)piperazin-1-yl]acetamide] | 5 to 50 nM | 75 to 125 nM | > 50 nM | C (an IC50 ratio of less than 15 fold) | 100 to 1000 nM
Cc1cc(NC(=O)C(=O)N2C[C@@H](C)N(C(=O)C(C)C)C[C@@H]2c2ccc3scnc3c2)cnc1N (single isomer, unassigned) [Compound 43] | 5 to 50 nM | > 125 nM | > 50 nM | C (an IC50 ratio of less than 15 fold) | 100 to 1000 nM
Cc1ccc([C@H]2CN(C(=O)C3(C(F)(F)F)CC3)[C@H](C)CN2C(=O)C(=O)Nc2cnc(N)c(C)c2)cc1 [Compound 128, N-(6-amino-5-methylpyridin-3-yl)-2-((2S,5R)-5-methyl-2-(p-tolyl)-4-(1-(trifluoromethyl)cyclopropanecarbonyl)piperazin-1-yl)-2-oxoacetamide] | 5 to 50 nM | 75 to 125 nM | > 50 nM | B (an IC50 ratio greater than or equal to 15 fold but lower than 30 fold) | < 100 nM
CCc1cc(NC(=O)C(=O)N2C[C@@H](C)N(CC(C)C)C[C@@H]2c2ccccc2)cnc1N [Compound 32, N-(6-amino-5-ethylpyridin-3-yl)-2-((2S,5R)-4-isobutyl-5-methyl-2-phenylpiperazin-1-yl)-2-oxoacetamide] | 5 to 50 nM | > 125 nM | > 50 nM | A (an IC50 ratio greater than or equal to 30 fold) | < 100 nM
Cc1cc(NC(=O)C(=O)N2C[C@@H](C)N(C(=O)C(C)(C)CN(C)C)C[C@@H]2c2ccccc2)cnc1N [Compound 13] | 5 to 50 nM | < 75 nM | > 50 nM | C (an IC50 ratio of less than 15 fold) | < 100 nM
CCN1C[C@H](c2ccccc2)N(C(=O)C(=O)Nc2cnc(N)c3cn[nH]c23)C[C@H]1C (racemic) [Compound 162, N-(4-Amino-1H-pyrazolo[4,3-c]pyridin-7-yl)-2-oxo-2-[rac-(2S,5R)-4-ethyl-5-methyl-2-phenyl-piperazin-1-yl]acetamide] | < 5 nM | – | > 50 nM | A (an IC50 ratio greater than or equal to 30 fold) | < 100 nM
C[C@@H]1CN(C(=O)C(=O)Nc2cnc(N)c3cn[nH]c23)[C@@H](c2ccc(F)cc2)CN1C(=O)C1(C(F)(F)F)CC1 [Compound 79] | < 5 nM | < 75 nM | 5 to 50 nM | C (an IC50 ratio of less than 15 fold) | < 100 nM
